Measured values reported in patent US20160136192A1, “METHODS AND COMPOSITIONS FOR ENHANCING COGNITIVE PERFORMANCE” (ABBOTT LABORATORIES, priority 2013, published 2016).

Tested on: NMDAR dependant hippocampal LTP
Assay: NMDAR dependant LTP (fEPSP amplitude) induced by weak tetanus, recorded on hippocampal brain slices in vitro with MEA
Type: cell-based, mice
Details: mouse hippocampal slices, 10 stimulations at 100 Hz for 0.1 seconds

| SMILES | effect on NMDAR dependant hippocampal LTP induced by weak tetanic stimulation (10 micromolar (μM)) | effect on NMDAR dependant hippocampal LTP induced by weak tetanic stimulation (20 micromolar (μM)) | effect on NMDAR dependant hippocampal LTP induced by weak tetanic stimulation (30 micromolar (μM)) | effect on NMDAR dependant hippocampal LTP induced by weak tetanic stimulation (15 micromolar) | effect on NMDAR dependant hippocampal LTP induced by weak tetanic stimulation (40 micromolar) | effect on NMDAR dependant hippocampal LTP induced by weak tetanic stimulation (50 micromolar) |
| --- | --- | --- | --- | --- | --- | --- |
| CCCCCCCC/C=C\CCCCCCCC(=O)OCC [oleic acid (ethyl ester), Oleic acid ethyl ester] | did not produce any effect | significantly enhanced | significantly enhanced | – | – | – |
| C[N+](C)(C)CCO.[Cl-] [choline chloride, Choline chloride] | did not produce any effect | did not produce any effect | significantly enhanced | did not produce any effect | significantly enhanced | significantly enhanced |
